Measurements reported in patent publication US7521447B2, “P38 inhibitors and methods of use thereof” (Array Biopharma Inc., priority 2003, dated 2009).

How the values were obtained:
[1] = system: LPS-induced TNF-α secretion from human peripheral blood mononuclear cells (PBMC); assay: PBMC Assay: inhibition of LPS-induced TNF-α secretion; format: cell-based; parameters: key: An “active” compound is defined as a compound having an IC50 below 500 nM; details: LPS-stimulated human PBMC, TNF-α ELISA
Experimental: The ability of compounds of this invention to inhibit TNF-α production was assessed by using human peripheral blood mononuclear cells (“PBMC”) which synthesize and secrete TNF-α when stimulated with lipopolysaccharide.
Compound test solutions were made by making 5 fold serial dilutions in DMSO, which dilutions were then diluted to 5× stocks by diluting with MEM, 2% heat inactivated fetal bovine serum (“FBS”), 20 mM HEPES, 2 mM L-glutamine, and 1% penicillin/streptomycin.
PBMC's were isolated from human blood as follows. Whole blood samples were collected from human volunteers into Vacutainer™ CPT from Becton Dickinson. Tubes were mixed and centrifuged at room temperature (18-25° C.) in a horizontal rotor for a minimum of 15 minutes at 1500-1800 RCF (relative centrifugal force). For each donor, the buffy coat layers were pooled into a single tube and washed twice with phosphate buffered saline (“PBS”). The cell pellet was resuspended in MEM, 2% heat inactivated fetal bovine serum (“FBS”), 20 mM HEPES, 2 mM L-glutamine, and 1% penicillin/streptomycin. Total cell number was determined using a hemocytometer and the cell suspension was adjusted to 2×10^6 cells/mL.
0.1 mL of cell suspension was added to each well of a 96-well cell culture plate. 30 μL of a compound test solution was added, and the cells were incubated in a 37° C./5% CO2 incubator for 1 hour. 20 μL of 7.5 ng/mL lipopolysaccharide (LPS E. Coli K-235) was then added to each well, and the cells were returned to the 37° C./5% CO2 incubator for 16-20 hours. The cells were centrifuged for 15 minutes at 1100 RCF. Approximately 0.12 mL of the supernatant was transferred into a clean 96 well polypropylene plate. The samples were either assayed immediately or were stored at −80° C. until ready for assay. TNF-α levels were determined in each sample using a human TNF-α ELISA assay such as that described below.
TNF-α levels were determined using the following assay. TNF-alpha antibody coated plates were prepared by adding 150 μL of 2 μg/mL anti-TNF-α purified mouse monoclonal IgG in Carbonate-Bicarbonate buffer (BupH™ Carbonate-Bicarbonate Buffer Pack) to wells of a 96-well Immulon 4 plate (Immulon 4 ELISA Flat Bottom Plate; Dynex, catalog number 011-010-3855) and incubated overnight at 2-8° C. Coating solution was removed and 200 μL of “blocking buffer” (20 mM HEPES pH 7.4, 150 mM NaCl, 2% BSA) was added and plates were stored 2-8° C. until ready to use. A ten-point recombinant human TNF-α standard curve was prepared by a 1:2 serial dilution in “sample diluent” (20 mM HEPES, pH 7.4, 150 mM NaCl, 2 mM MgCl2, 1% BSA) with a top concentration of 6000 pg/mL.
Blocking solution was removed from TNF-α ELISA plates by washing five times with 300 μL of “wash buffer” (20 mM HEPES, pH 7.4, 150 mM NaCl, 2 mM MgCl2, 0.02% Tween-20). 50 μL of “sample diluent” was added to all wells, and then either 50 μL of a TNF-α standard curve solution or test compound supernatant was added to all wells. The plate was incubated at room temperature for one hour with shaking (300 rpm). The plate was washed wash five times with 300 μL “wash buffer”. 100 μL of 0.2 μg/mL biotinylated goat anti-human TNF-α in “antibody diluent” (20 mM HEPES, pH 7.4, 150 mM NaCl, 2 mM MgCl2, 1% BSA, 0.02% Tween-20) was added per well, and the plate was incubated at room temperature for one hour with shaking (300 rpm). The plate was washed wash five times with 300 μL “wash buffer” per well. 100 μL of 0.02 μg/mL streptavidin alkaline phosphatase in “antibody diluent” was added per well, and the plate was incubated at room temperature for one hour with shaking (300 rpm). The plate was washed wash five times with 300 μL wash buffer per well. 200 μL of 1 mg/mL pNPP (p-nitrophenyl phosphate) in diethanolamine buffer with 0.5 mM MgCl2 was added per well, and the plate was incubated for 30 to 45 minutes at room temperature with shaking (300 rpm). […]

[2] = target: activated p38α enzyme (Homo sapiens, UniProt Q16539); assay: p38 Biochemical Assay; parameters: key: An “active” compound is defined as a compound having an IC50 below 500 nM; details: 5 nM activated p38α, 1 uM ATF-2 substrate, 10 μM ATP
Experimental: P38 activity was assayed at room temperature in a 100 μl reaction containing 5 nM activated p38α enzyme and 1 uM ATF-2 (Activating Transcription Factor 2 fusion protein) as the substrate in 25 mM HEPES (pH 7.4), 100 μM Vanadate, 1 mM DTT, 10 mM MgCl2 and 10 μM [[…]-^33P]-ATP (˜0.1 μCi P^33/reaction). The reaction was terminated after 30-40 minutes by adding 25% TCA, let stand for 5 minutes and then transferred directly to a GF-B membrane filter plate. The filter was washed twice for 30 seconds with 0.5% phosphoric acid using a Tomtec Mach III Automated Harvestor. After washing, the vacuum was continued for 30 seconds to dry the filter. Approximately 30 μl of scintillant was added per well to the filter plate and then read in a Liquid Scintillation Counter (Packard TopCount HTS).

activated p38α enzyme, sequence (Q16539 whole entry, the tested form may be a part): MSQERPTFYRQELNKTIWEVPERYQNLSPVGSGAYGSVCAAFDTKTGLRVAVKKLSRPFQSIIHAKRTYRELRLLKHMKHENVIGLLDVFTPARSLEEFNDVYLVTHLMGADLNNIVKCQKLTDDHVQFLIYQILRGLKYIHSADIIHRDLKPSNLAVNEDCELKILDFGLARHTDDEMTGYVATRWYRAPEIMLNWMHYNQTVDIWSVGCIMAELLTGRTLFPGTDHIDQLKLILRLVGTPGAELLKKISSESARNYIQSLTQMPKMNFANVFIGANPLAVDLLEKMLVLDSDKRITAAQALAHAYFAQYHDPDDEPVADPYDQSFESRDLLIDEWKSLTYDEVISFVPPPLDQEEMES

| p38 Inhibition IC50 (nM) [2] | SMILES | PBMC IC50 (nM) [1] |
| --- | --- | --- |
| active | CC(C)Cn1ncc2cc(C(=NO)c3ccc(F)cc3)ccc21 [Compound 7f-2, (4-fluorophenyl)-(1-isobutyl-1H-indazol-5-yl)-methanone oxime] | active |
| active | CC(C)Cn1ncc2cc(C(=NO)c3ccc(F)cc3F)ccc21 [Compound 7f-1, (2,4-difluorophenyl)-(1-isobutyl-1H-indazol-5-yl)-methanone oxime] | active |
| active | Cc1ccccc1C(=O)c1ccc2c(cnn2CC(C)C)c1 [Compound 5f-10, (1-isobutyl-1H-indazol-5-yl)-O-tolyl-methanone] | active |
| active | CCON=C(c1ccc2c(cnn2CC(C)C)c1)c1ccc(F)cc1F [Compound 7f-3, (2,4-difluorophenyl)-(1-isobutyl-1H-indazol-5-yl)-methanone O-ethyl-oxime] | active |

Continued, compound first:

| SMILES | p38 Inhibition IC50 (nM) [2] | PBMC IC50 (nM) [1] |
| --- | --- | --- |
| CC(C)Cn1ncc2cc(C(=O)c3ccc(F)cc3F)ccc21 [Compound 5f-1, (2,4-difluorophenyl)-(1-isobutyl-1H-indazol-5-yl)-methanone] | active | active |
| CC(C)Cn1ncc2cc(Nc3ccc(F)cc3)ccc21 [Compound 2h-2, (4-fluorophenyl)-(1-isobutyl-1H-indazol-5-yl)-amine] | active | active |
| CC(C)Cn1ncc2cc(C(O)c3ccc(Cl)cc3Cl)ccc21 (stereo not drawn) [Compound 4f-9, (2,4-dichlorophenyl)-(1-isobutyl-1H-indazol-5-yl)-methanol] | active | inactive |
| CC(C)Cn1ncc2cc(Oc3ccc(F)cc3)c(C(=O)NCCN(C)C)cc21 [Compound 11g-10, 5-(4-fluorophenoxy)-1-isobutyl-1H-indazole-6-carboxylic acid (2-dimethylaminoethyl)-amide] | active | active |
| CC(C)Cn1ncc2cc(C(O)c3ccc(F)cc3F)ccc21 (stereo not drawn) [Compound 4f-1, (2,4-difluorophenyl)-(1-isobutyl-1H-indazol-5-yl)-methanol] | active | active |
| CC(C)Cn1ncc2cc(C(=O)c3ccc(Cl)cc3Cl)ccc21 [Compound 5f-9, (2,4-dichlorophenyl)-(1-isobutyl-1H-indazol-5-yl)-methanone] | active | active |
| Cc1ccccc1Nc1ccc2c(cnn2CC(C)C)c1 [Compound 2h-10, (1-isobutyl-1H-indazol-5-yl)-O-tolyl-amine] | active | active |
| CC(C)Cn1ncc2cc(C(=O)c3ccc(F)cc3)ccc21 [Compound 5f-2, (4-fluorophenyl)-(1-isobutyl-1H-indazol-5-yl)-methanone] | active | active |
